Measurements published in patent US8258115B2, “Stable salts of S-adenosylmethionine and process for the preparation thereof” (priority 2007, dated 2012).

Columns and labels:
Format in all cases: physicochemical
[1] = Stability test in thermostated heaters at 40° C. and 75% R.H., active ingredient %; details: heat-sealed aluminium/aluminium bags
Method: (§1) In the following Tables 2-13, the percentage values are repotted which were obtained in the stability tests carried out on the products of examples 1-6. The stability tests were carried out in thermostated heaters at 40° C. and 75% R.H (tables 2-7) as well as 25° C. and 60% R.H. (tables 8-13), preserving the samples in heat-sealed aluminium/aluminium bags according to the following criteria: the active ingredient % was determined for every sampling point taken under consideration.

[2] = Stability test in thermostated heaters at 25° C. and 60% R.H., active ingredient %; details: heat-sealed aluminium/aluminium bags
Method: as §1

[3] = Degradation of the active stereoisomer S,S at 40° C. and 75% R.H.
Method: (§2) In the following Tables 14-25, the percentage values are reported of the degradation of the active stereoisomer S,S calculated at 40° C. and 75% R.H. (Tables 14-19) and at 25° C. and 65% R.H.

[4] = Degradation of the active stereoisomer S,S at 25° C. and 65% R.H.
Method: as §2

[5] = Moisture % K.F. of the stability samples; details: sample used in the stability test
Method: as §1, with “the active ingredient % was determined for every sampling point taken under consideration.” left out

| SMILES | stability test percentage value (active ingredient %), 30 days [1] | stability test percentage value (active ingredient %), 60 days [1] | stability test percentage value (active ingredient %), 90 days [1] | stability test percentage value (active ingredient %), 120 days [1] | stability test percentage value (active ingredient %), 180 days [1] | stability test percentage value (active ingredient %), 30 days [2] | stability test percentage value (active ingredient %), 90 days [2] | stability test percentage value (active ingredient %), 180 days [2] | stability test percentage value (active ingredient %), 360 days [2] | stability test percentage value (active ingredient %), 720 days [2] | percentage of active S,S stereoisomer remaining ([3]; 30 days) | percentage of active S,S stereoisomer remaining ([3]; 60 days) | percentage of active S,S stereoisomer remaining ([3]; 90 days) | percentage of active S,S stereoisomer remaining ([3]; 120 days) | percentage of active S,S stereoisomer remaining ([3]; 180 days) | percentage of active S,S stereoisomer remaining ([3]; T = 0) | percentage of the active S,S stereoisomer remaining ([4]; 30 days) | percentage of the active S,S stereoisomer remaining ([4]; 90 days) | percentage of the active S,S stereoisomer remaining ([4]; 180 days) | percentage of the active S,S stereoisomer remaining ([4]; 360 days) | other results |
| --- | --- | --- | --- | --- | --- | --- | --- | --- | --- | --- | --- | --- | --- | --- | --- | --- | --- | --- | --- | --- | --- |
| C[S+](CCC(N)C(=O)[O-])C[C@H]1O[C@@H](n2cnc3c(N)ncnc32)[C@H](O)[C@@H]1O.C[S+](CCC(N)C(=O)[O-])C[C@H]1O[C@@H](n2cnc3c(N)ncnc32)[C@H](O)[C@@H]1O.O=S(=O)(O)O.[Ca+2].[Cl-].[Cl-] (some centres unmarked) [SAMe•0.5H2SO4•0.5CaCl2] | 0.48% | 0.76% | 1.48% | 1.98% | 3.99% | 0.23% | 0.35% | 0.57% | 0.78% | 0.99% | 89.8% | 86.8% | 83.6% | 80.6% | 77.6% | 98.2% | 97.8% | 96.7% | 93.6% | 90.8% | percentage of the active S,S stereoisomer remaining ([4]; 720 days): 88.6%; percentage of the active S,S stereoisomer remaining ([4]; T = 0): 98.2%; Moisture % K.F. [5]: 0.23% |
| C[S+](CCC(N)C(=O)[O-])C[C@H]1O[C@@H](n2cnc3c(N)ncnc32)[C@H](O)[C@@H]1O.C[S+](CCC(N)C(=O)[O-])C[C@H]1O[C@@H](n2cnc3c(N)ncnc32)[C@H](O)[C@@H]1O.O=S(=O)(O)O.[Cl-].[Cl-].[Mg+2] (some centres unmarked) [SAMe•0.5H2SO4•0.5MgCl2] | 0.36% | 0.70% | 1.16% | 1.66% | 2.45% | 0.12% | 0.25% | 0.35% | 0.57% | 0.79% | 89.8% | 86.8% | 83.6% | 80.6% | 77.6% | 98.2% | 97.8% | 96.8% | 93.6% | 90.6% | percentage of the active S,S stereoisomer remaining ([4]; 720 days): 87.6%; percentage of the active S,S stereoisomer remaining ([4]; T = 0): 98.2%; Moisture % K.F. [5]: 0.61% |
| C[S+](CCC(N)C(=O)[O-])C[C@H]1O[C@@H](n2cnc3c(N)ncnc32)[C@H](O)[C@@H]1O.C[S+](CCC(N)C(=O)[O-])C[C@H]1O[C@@H](n2cnc3c(N)ncnc32)[C@H](O)[C@@H]1O.O=S(=O)(O)O.O=S(=O)([O-])[O-].[Mg+2] (some centres unmarked) [SAMe•0.5H2SO4•0.5Mg2SO4•0.4H2O] | 0.57% | 0.65% | 0.96% | 1.40% | 2.18% | 0.23% | 0.45% | 0.65% | 0.87% | 0.99% | 90.8% | 88.8% | 85.6% | 82.6% | 78.6% | 98.2% | 97.8% | 96.8% | 95.6% | 92.6% | percentage of the active S,S stereoisomer remaining ([4]; 720 days): 88.6%; percentage of the active S,S stereoisomer remaining ([4]; T = 0): 98.2%; Moisture % K.F. [5]: 0.57% |
| C[S+](CCC(N)C(=O)[O-])C[C@H]1O[C@@H](n2cnc3c(N)ncnc32)[C@H](O)[C@@H]1O.O=S(=O)(O)O.O=S(=O)(O)O.[Cl-].[Cl-].[Mg+2] (some centres unmarked) [SAMe•2.0H2SO4•1.0MgCl2] | 0.19% | 0.34% | 0.82% | 1.12% | 1.87% | 0.10% | 0.18% | 0.25% | 0.49% | 0.62% | 89.3% | 85.3% | 83.3% | 89.3% | 75.3% | 97.2% | 96.3% | 95.3% | 93.3% | 91.0% | percentage of the active S,S stereoisomer remaining ([4]; 720 days): 88.0%; percentage of the active S,S stereoisomer remaining ([4]; T = 0): 97.2%; Moisture % K.F. [5]: 0.52% |
